Test: xn = mol fraction of the nth substance listed
Conditions: 101 kPa, Liquid, Vibrating tube method

Cc1cc(C)nc(C)c1 [2,4,6-trimethylpyridine] + CO
Conditions | mass density [kg/m3]
276.15 K, x1 = 0.0204 | 816.99
276.15 K, x1 = 0.0511 | 830.47
276.15 K, x1 = 0.0997 | 848.99
276.15 K, x1 = 0.194 | 875.69
276.15 K, x1 = 0.2957 | 895.63
276.15 K, x1 = 0.3884 | 907.79
276.15 K, x1 = 0.489 | 916.36
276.15 K, x1 = 0.5852 | 921.51
276.15 K, x1 = 0.6949 | 925.01
276.15 K, x1 = 0.7971 | 926.99
276.15 K, x1 = 0.8889 | 928.16
276.15 K, x1 = 1 | 928.45
277.15 K, x1 = 0.0204 | 816.06
277.15 K, x1 = 0.0511 | 829.54
277.15 K, x1 = 0.0997 | 848.07
277.15 K, x1 = 0.194 | 874.77
277.15 K, x1 = 0.2957 | 894.71
277.15 K, x1 = 0.3884 | 906.88
277.15 K, x1 = 0.489 | 915.47
277.15 K, x1 = 0.5852 | 920.64
277.15 K, x1 = 0.6949 | 924.15
277.15 K, x1 = 0.7971 | 926.14
277.15 K, x1 = 0.8889 | 927.31
277.15 K, x1 = 1 | 927.61
283.14 K, x1 = 0.2957 | 889.2
283.14 K, x1 = 0.3884 | 901.42
283.14 K, x1 = 0.5852 | 915.35
283.14 K, x1 = 0.7971 | 921.01
283.15 K, x1 = 0.0204 | 810.47
283.15 K, x1 = 0.0511 | 823.96
283.15 K, x1 = 0.0997 | 842.5
283.15 K, x1 = 0.194 | 869.23
283.15 K, x1 = 0.489 | 910.1
283.15 K, x1 = 0.6949 | 918.95
283.15 K, x1 = 0.8889 | 922.22
283.15 K, x1 = 1 | 922.54
288.15 K, x1 = 0.0204 | 805.79
288.15 K, x1 = 0.0511 | 819.3
288.15 K, x1 = 0.0997 | 837.86
288.15 K, x1 = 0.194 | 864.59
288.15 K, x1 = 0.2957 | 884.59
288.15 K, x1 = 0.3884 | 896.86
288.15 K, x1 = 0.489 | 905.6
288.15 K, x1 = 0.5852 | 910.93
288.15 K, x1 = 0.6949 | 914.61
288.15 K, x1 = 0.7971 | 916.72
288.15 K, x1 = 0.8889 | 917.96
288.15 K, x1 = 1 | 918.32
293.14 K, x1 = 0.0997 | 833.2
293.14 K, x1 = 1 | 914.08
293.15 K, x1 = 0.0204 | 801.11
293.15 K, x1 = 0.0511 | 814.63
293.15 K, x1 = 0.194 | 859.94
293.15 K, x1 = 0.2957 | 879.97
293.15 K, x1 = 0.3884 | 892.28
293.15 K, x1 = 0.489 | 901.1
293.15 K, x1 = 0.5852 | 906.5
293.15 K, x1 = 0.6949 | 910.25
293.15 K, x1 = 0.7971 | 912.41
293.15 K, x1 = 0.8889 | 913.69
298.14 K, x1 = 0.0511 | 809.94
298.14 K, x1 = 0.6949 | 905.88
298.14 K, x1 = 0.8889 | 909.41
298.15 K, x1 = 0.0204 | 796.41
298.15 K, x1 = 0.0997 | 828.52
298.15 K, x1 = 0.194 | 855.28
298.15 K, x1 = 0.2957 | 875.33
298.15 K, x1 = 0.3884 | 887.69
298.15 K, x1 = 0.489 | 896.57
298.15 K, x1 = 0.5852 | 902.05
298.15 K, x1 = 0.7971 | 908.1
298.15 K, x1 = 1 | 909.84
303.14 K, x1 = 0.7971 | 903.77
303.14 K, x1 = 0.8889 | 905.12
303.15 K, x1 = 0.0204 | 791.7
303.15 K, x1 = 0.0511 | 805.24
303.15 K, x1 = 0.0997 | 823.83
303.15 K, x1 = 0.194 | 850.6
303.15 K, x1 = 0.2957 | 870.67
303.15 K, x1 = 0.3884 | 883.08
303.15 K, x1 = 0.489 | 892.04
303.15 K, x1 = 0.5852 | 897.58
303.15 K, x1 = 0.6949 | 901.49
303.15 K, x1 = 1 | 905.58
308.14 K, x1 = 0.0997 | 819.11
308.14 K, x1 = 0.194 | 845.89
308.14 K, x1 = 0.3884 | 878.45
308.14 K, x1 = 0.489 | 887.48
308.14 K, x1 = 0.5852 | 893.1
308.14 K, x1 = 0.6949 | 897.08
308.14 K, x1 = 0.7971 | 899.42
308.15 K, x1 = 0.0204 | 786.96
308.15 K, x1 = 0.0511 | 800.51
308.15 K, x1 = 0.2957 | 865.99
308.15 K, x1 = 0.8889 | 900.82
308.15 K, x1 = 1 | 901.31
313.14 K, x1 = 0.0204 | 782.2
313.14 K, x1 = 0.0511 | 795.75
313.14 K, x1 = 0.0997 | 814.36
313.14 K, x1 = 0.489 | 882.9
313.14 K, x1 = 0.6949 | 892.65
313.15 K, x1 = 0.194 | 841.15
313.15 K, x1 = 0.2957 | 861.28
313.15 K, x1 = 0.3884 | 873.79
313.15 K, x1 = 0.5852 | 888.59
313.15 K, x1 = 0.7971 | 895.05
313.15 K, x1 = 0.8889 | 896.49
313.15 K, x1 = 1 | 897.03

Reference: the NIST ThermoML archive (doi:10.1007/s10765-011-1149-x)
